From US11912705B2, “Cathinone derivatives, pharmaceutical formulations, and methods” (The Corporation of Mercer University, priority 2020, dated 2024)
Values joined by “and” are separate entries in the source; they are usually repeats but may differ in a detail not shown here. Equal entries are not always repeated. Where two headings read alike, the source gives them in different places.

Experiments:
[1] = target: T1, human M3R (Homo sapiens, UniProt P20309); assay: biochemical; type: binding
T1 construct: host or cells: HEK293 (CRL-1573, ATCC), transient
Experimental: (§1) Radioligand Competition Binding: Radioligand competition binding assays were conducted using membranes collected from transiently transfected HEK293 cells (P<20 from a procured stock, CRL-1573, ATCC, Manassas, Va., USA) as previously described (Chen, Y., et al. Drug Test Anal 11, 990-998). Briefly, cells ˜90% confluent in 10 cm plates were transfected with 5 μg human M1R, M2R, M3R, M4R or […] cDNA (cDNA resource center, Bloomsburg, Pa., USA) using a lipid-based method (LipoD293 reagent, SignaGen Laboratories, Rockville, Md., USA). Membranes were collected by centrifugation about 48 hours later and stored at −80° C. until used. […] After a 90-minute incubation at room temperature on a shaker, contents from the plates were rapidly filtered through GF/B fiberglass filter mats, pre-soaked with ice cold 50 mM Tris buffer (pH 7.4), using a Microbeta Filtermat-96 cell harvester (Perkin Elmer, Waltham, Mass., USA). Approximately 200 mL of ice cold, 50 mM Tris buffer was then vacuumed through filter mats to wash away unbound radioligand. Filter mats were dried on a hot plate and soaked in Betaplate (Perkin Elmer, Waltham, Mass., USA) scintillation fluid in plastic bags. Bags were sealed and placed in cassettes. Radioactivity was measured in a Microbeta2 Microplate Counter (Perkin Elmer, Waltham, Mass., USA), and counts per minute corresponding to each well on the plates were recorded. For full dose-response competition binding assays, increasing half-log unit concentrations of five unsubstituted PSCs were tested at M2Rs and M1Rs, with the same procedures described above.
(§2) Curve Fitting and Statistical Analyses: All data were analyzed by GraphPad 8.3.0 (San Diego, Calif., USA). Ki values were determined from data fit to both one- and two-site models. […] EC50 and IC50 values from functional assays were determined from data fit to the log(agonist) vs. response (three parameters) or log(inhibitor) vs. response (three parameters) model, respectively. Kb values were calculated from IC50 values using the Cheng-Prusoff equation with modification (see, e.g., Leff, P., and Dougall, I. G. (1993) Trends Pharmacol Sci 14, 110-112): Kb=IC50/((2+([A]/[A50])nH)1/nH−1)

[2] = target: T2, human M1R (Homo sapiens, UniProt P11229); assay: biochemical; type: binding
T2 construct: host or cells: HEK293 (CRL-1573, ATCC), transient
T2 sequence (P11229 1-460): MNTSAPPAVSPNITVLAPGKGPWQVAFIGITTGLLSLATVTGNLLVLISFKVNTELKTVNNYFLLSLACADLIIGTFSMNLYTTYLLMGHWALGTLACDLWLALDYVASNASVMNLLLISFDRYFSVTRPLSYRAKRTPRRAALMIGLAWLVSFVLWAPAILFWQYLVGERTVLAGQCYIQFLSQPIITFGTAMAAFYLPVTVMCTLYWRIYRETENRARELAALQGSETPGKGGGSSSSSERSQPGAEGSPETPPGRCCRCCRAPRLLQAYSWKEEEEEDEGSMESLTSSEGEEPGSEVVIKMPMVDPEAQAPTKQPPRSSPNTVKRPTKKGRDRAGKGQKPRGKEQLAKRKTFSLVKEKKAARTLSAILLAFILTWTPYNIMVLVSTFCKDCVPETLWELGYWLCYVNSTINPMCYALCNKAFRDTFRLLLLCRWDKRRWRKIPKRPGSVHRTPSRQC
Experimental: as §1, §2

[3] = target: T3, human M5R (Homo sapiens, UniProt P08912); assay: [3H]Scopolamine radioligand competition binding at M5R
T3 construct: host or cells: HEK293 (CRL-1573, ATCC), transient
T3 sequence (P08912 1-532): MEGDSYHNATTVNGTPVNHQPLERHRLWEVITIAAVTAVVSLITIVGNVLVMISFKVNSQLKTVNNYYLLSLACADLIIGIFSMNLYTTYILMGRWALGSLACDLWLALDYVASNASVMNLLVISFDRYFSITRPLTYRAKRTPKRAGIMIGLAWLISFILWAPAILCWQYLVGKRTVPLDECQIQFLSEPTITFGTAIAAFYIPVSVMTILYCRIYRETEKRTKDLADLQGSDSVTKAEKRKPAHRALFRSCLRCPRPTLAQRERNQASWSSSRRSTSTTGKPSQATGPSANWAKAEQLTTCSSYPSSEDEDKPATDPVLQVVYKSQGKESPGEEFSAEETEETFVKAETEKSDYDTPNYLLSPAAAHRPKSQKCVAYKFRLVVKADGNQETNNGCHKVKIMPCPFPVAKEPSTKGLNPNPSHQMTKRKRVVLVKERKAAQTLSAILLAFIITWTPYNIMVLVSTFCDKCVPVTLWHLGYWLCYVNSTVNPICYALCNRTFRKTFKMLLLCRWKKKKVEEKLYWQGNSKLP
Experimental: as §1, §2

[4] = target: T4, human M2R (Homo sapiens, UniProt P08172); assay: [3H]Scopolamine radioligand competition binding at M2R; details: for M2 Selectivity: range of Ki ratios of M1, M3, M4, M5 versus M2
T4 construct: host or cells: HEK293 (CRL-1573, ATCC), transient
T4 sequence (P08172 1-466): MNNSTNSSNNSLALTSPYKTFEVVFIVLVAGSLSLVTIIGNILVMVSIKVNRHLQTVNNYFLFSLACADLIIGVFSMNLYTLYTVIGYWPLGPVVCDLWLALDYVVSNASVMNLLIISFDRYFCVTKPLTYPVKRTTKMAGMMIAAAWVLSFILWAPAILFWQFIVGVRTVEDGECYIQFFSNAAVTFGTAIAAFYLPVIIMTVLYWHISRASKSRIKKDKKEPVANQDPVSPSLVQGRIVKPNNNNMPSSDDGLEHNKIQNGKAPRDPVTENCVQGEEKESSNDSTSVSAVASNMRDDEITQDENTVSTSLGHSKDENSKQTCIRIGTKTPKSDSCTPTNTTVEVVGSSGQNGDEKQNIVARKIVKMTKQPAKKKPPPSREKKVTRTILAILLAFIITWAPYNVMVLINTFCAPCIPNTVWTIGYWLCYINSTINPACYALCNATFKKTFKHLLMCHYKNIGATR
Experimental: as §1, §2

[5] = human muscarinic M3 (N = 5), [3H]-N-methylscopolamine, read-out: Affinities, Ki ± SEM, nM M3
[6] = human muscarinic M1 (N = 6), [3H]-N-methylscopolamine, read-out: Affinities, Ki ± SEM, nM M1
[7] = Affinities, Ki ± SEM, nM M2, human muscarinic M2 (N = 9), [3H]-N-methylscopolamine

T1 sequence (P20309 whole entry): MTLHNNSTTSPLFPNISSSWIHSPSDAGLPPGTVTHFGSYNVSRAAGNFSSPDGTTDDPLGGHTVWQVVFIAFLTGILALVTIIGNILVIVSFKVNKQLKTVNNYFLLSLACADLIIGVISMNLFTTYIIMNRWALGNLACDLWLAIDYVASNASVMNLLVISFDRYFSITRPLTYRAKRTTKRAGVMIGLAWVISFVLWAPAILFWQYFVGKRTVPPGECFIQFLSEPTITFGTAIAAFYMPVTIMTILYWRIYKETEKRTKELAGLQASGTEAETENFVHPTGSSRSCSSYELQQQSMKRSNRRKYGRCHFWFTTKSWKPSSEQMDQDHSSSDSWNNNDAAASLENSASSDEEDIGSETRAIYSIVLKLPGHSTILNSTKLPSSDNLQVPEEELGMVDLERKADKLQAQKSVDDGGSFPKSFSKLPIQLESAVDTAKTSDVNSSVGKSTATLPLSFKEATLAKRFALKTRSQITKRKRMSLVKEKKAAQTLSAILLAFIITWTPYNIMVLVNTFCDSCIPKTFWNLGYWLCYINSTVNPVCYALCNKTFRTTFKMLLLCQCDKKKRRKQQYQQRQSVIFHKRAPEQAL

CCCCC(C(=O)c1ccccc1)N1CCCCC1 (stereo not drawn) [Compound (1), 1-phenyl-2-(piperidin-1-yl)hexan-1-one]
Ki [1, 5]: 994 nM | Ki [2, 6]: 1010 nM | Ki [3]: 679 nM | Ki [4, 7]: 70 nM and 69.9 nM | M2 Selectivity [4]: 9.72-17.76

CCCCC(C(=O)c1ccccc1)N1CCCCCC1 (stereo not drawn) [Compound (2), 2-(azepan-1-yl)-1-phenylhexan-1-one]
Ki [1, 5]: 988 nM | Ki [2, 6]: 1490 nM | Ki [3]: 1040 nM | Ki [4, 7]: 90 nM and 89.5 nM | M2 Selectivity [4]: 11.04-16.63

CCCCC(C(=O)c1ccccc1)N1CCCC1 (stereo not drawn) [α-PHP, 1-phenyl-2-(pyrrolidin-1-yl)hexan-1-one]
Ki ([1]; estimate from 1 and 10 μM concentrations (N = 2), N.C. = <5% displacement of radioligand at 10 μM, read-out: estimated pKi at M3R (converted)): 1660 nM | fold increase in M1R affinity from α-PPP [2]: 121 fold | Ki ([2]; estimate from 1 and 10 μM concentrations (N = 2), N.C. = <5% displacement of radioligand at 10 μM, read-out: estimated pKi at M1R (converted)): 2570 nM | Ki ([2]; full dose-response [3H]Scopolamine competition binding, α-PPP and α-PBP interpolated, read-out: pKi at M1R (converted)): 1580 nM | Ki [3]: 1510 nM | fold increase in M2R affinity compared to α-PPP [4]: 302 fold | Ki ([4]; Ki at M2Rs, full dose-response [3H]Scopolamine competition binding): 251 nM | Ki ([4]; estimated pKi at M2R, estimate from 1 and 10 μM concentrations (N = 2), N.C. = <5% displacement of radioligand at 10 μM): 468 nM
